53 compounds from patent publication EP1115693B9, “SUBSTITUTED POLYCYCLIC ARYL AND HETEROARYL $i([sequence])-HETEROALKYLAMINES USEFUL FOR INHIBITING CHOLESTERYL ESTER [sequence] PROTEIN ACTIVITY” (Monsanto Company, priority 1998, dated 2000) can be followed below.

This assay deals with T1, CETP (Homo sapiens, UniProt P11597).
T1 sequence (P11597 18-493): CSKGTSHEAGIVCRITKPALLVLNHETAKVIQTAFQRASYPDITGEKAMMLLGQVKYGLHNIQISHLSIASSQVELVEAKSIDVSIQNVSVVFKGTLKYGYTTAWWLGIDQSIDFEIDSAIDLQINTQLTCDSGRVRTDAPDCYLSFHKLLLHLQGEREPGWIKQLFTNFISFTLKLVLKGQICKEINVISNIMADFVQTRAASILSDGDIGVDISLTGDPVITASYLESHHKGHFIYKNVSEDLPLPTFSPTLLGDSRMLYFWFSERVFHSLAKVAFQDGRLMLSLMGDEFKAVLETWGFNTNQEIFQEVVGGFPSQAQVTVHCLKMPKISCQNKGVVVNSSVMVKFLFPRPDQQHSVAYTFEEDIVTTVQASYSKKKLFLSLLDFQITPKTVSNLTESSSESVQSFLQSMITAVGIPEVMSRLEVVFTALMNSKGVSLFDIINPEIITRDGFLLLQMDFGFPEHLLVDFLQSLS
The assay is described as follows: Assay of CETP inhibition using purified components (reconstituted buffer assay): transfer of [3H]CE from HDL to LDL. In kind it is biochemical. Also noted: made in house; host or cells: CHO cells (serum-free conditioned medium). To be noted: 2 hours at 37°C. How it is done: ASSAY OF CETP INHIBITION USING PURIFIED COMPONENTS (RECONSTITUTED BUFFER ASSAY)
The ability of compounds to inhibit CETP activity was assessed using an in vitro assay that measured the rate of transfer of radiolabeled cholesteryl ester ([^3H]CE) from HDL donor particles to LDL acceptor particles. Details of the assay are provided by Glenn, K. C. et al. (Glenn and Melton, "Quantification of Cholesteryl Ester Transfer Protein (CETP): A) CETP Activity and B) Immunochemical Assay of CETP Protein," Meth. Enzymol., 263, 339-351 (1996)). Human recombinant CETP can be obtained from the serum-free conditioned medium of CHO cells transfected with a cDNA for CETP and purified as described by Wang, S. et al. (J. Biol. Chem. 267, 17487-17490 (1992)). To measure CETP activity, [^3H]CE-labeled-HDL, LDL, CETP and assay buffer (50 mM tris(hydroxymethyl)aminomethane, pH 7.4; 150 mM sodium chloride; 2 mM ethylenediamine-tetraacetic acid (EDTA); 1% bovine serum albumin) were incubated in a final volume of 200 µL, for 2 hours at 37°C in 96 well plates. […] The inhibitors were then diluted 1:1 with CETP in assay buffer, and then 25 µL of that solution was mixed with 175 µL of lipoprotein pool for assay. Following incubation, LDL was differentially precipitated by the addition of 50 µL of 1% (w/v) dextran sulfate/0.5 M magnesium chloride, mixed by vortex, and incubated at room temperature for 10 minutes. A potion of the solution (200 µL) was transferred to a filter plate (Millipore). After filtration, the radioactivity present in the precipitated LDL was measured by liquid scintillation counting.
This value was defined as the IC50.
Compound `Fc1ccc(Oc2cccc(NCc3cccc(OC(F)(F)C(F)F)c3)c2)cc1` [634C] showed an IC50 above 100 µM. The figure for `O=C(O)c1ccc(COc2cccc(N(Cc3cccc(OC(F)(F)C(F)F)c3)CC(O)C(F)(F)F)c2)cc1` (centres unmarked) [EX-435B, 4-[[3-[[[3-(1,1,2,2-tetrafluoroethoxy)phenyl]methyl](3,3,3-trifluoro-2-hydroxypropyl)amino]phenoxy]methyl]benzoic acid] is above 50 µM; for `COc1cccc(N(Cc2cccc(C)c2)CC(O)C(F)(F)F)c1` (centres unmarked) [Example 3] it is 60 µM; for `OCc1cccc(CN(CC(O)C(F)(F)F)c2cccc(Oc3ccccc3)c2)c1` (centres unmarked) [Example 618, 3-[[(3-phenoxyphenyl)(3,3,3-trifluoro-2-hydroxypropyl)amino]methyl]benzenemethanol] it is 100 µM. The figure for `O=C(OC(CN(C(=O)c1cccc(C(F)(F)F)c1)c1cccc(F)c1)C(F)(F)F)c1cccc(C(F)(F)F)c1` (centres unmarked) [Example 662, 2,2,2-trifluoro-1-[[(3-fluorophenyl)[3-(trifluoromethyl)benzoyl]amino]-methyl]ethyl 3-trifluoromethylbenzoate] is 50 µM; for `O=C(c1cccc(C(F)(F)F)c1)N(CC(O)C(F)(F)F)c1cccc(F)c1` (centres unmarked) [Example 663, N-(3-fluorophenyl)-N-(3,3,3-trifluoro-2-hydroxypropyl)-3-(trifluoromethyl)benzamide] it is 100 µM. Turning to `OC(CN(Cc1ccccc1)c1ccccc1)C(F)(F)F` (centres unmarked) [compound 2], half-maximal inhibition (IC50) was put at 100 µM. Next, `OC(CN(Cc1ccccc1)c1cccc(F)c1)C(F)(F)F` (centres unmarked) [compound 10]: above 100 µM; `OC(CN(Cc1cccc(F)c1)c1cccc(F)c1)C(F)(F)F` (centres unmarked) [compound 18]: 60 µM. Next, `Cc1ccc(N(Cc2cccc(C(F)(F)F)c2)CC(O)C(F)(F)F)cc1` (centres unmarked) [compound 20]: above 100 µM. The figure for `Cc1ccccc1N(Cc1cccc(C(F)(F)F)c1)CC(O)C(F)(F)F` (centres unmarked) [compound 21] is above 100 µM. In turn, `OC(CN(Cc1ccc(C(F)(F)F)cc1)c1ccc(F)c(F)c1)C(F)(F)F` (centres unmarked) [compound 22] displayed an IC50 of 50 µM. The compound `Cc1ccc(N(Cc2cccc(F)c2)CC(O)C(F)(F)F)cc1` (centres unmarked) [compound 32] showed an IC50 above 100 µM. The compound `Cc1ccc(CN(CC(O)C(F)(F)F)c2cccc(Cl)c2)cc1` (centres unmarked) [compound 34] registered a half-maximal inhibitory concentration (IC50) of 50 µM. Next, `Cc1ccc(CN(CC(O)C(F)(F)F)c2cccc(C(F)(F)F)c2)cc1` (centres unmarked) [compound 45]: 100 µM; `Cc1cccc(CN(CC(O)C(F)(F)F)c2cccc(F)c2)c1` (centres unmarked) [compound 49]: above 100 µM; `OC(CN(Cc1cccc(Oc2ccc(Cl)cc2)c1)c1cccc(OC(F)(F)F)c1)C(F)(F)F` (centres unmarked) [compound 93]: 50 µM. Next, `OC(CN(Cc1cccc(Oc2cc(Cl)cc(Cl)c2)c1)c1cccc(OC(F)(F)F)c1)C(F)(F)F` (centres unmarked) [compound 96]: 50 µM; `CCCCOc1ccc(CN(CC(O)C(F)(F)F)c2cccc(OC(F)(F)F)c2)cc1` (centres unmarked) [compound 120]: 50 µM; `OC(CN(Cc1ccc(-c2ccccc2)cc1)c1ccc(C(F)(F)F)cc1)C(F)(F)F` (centres unmarked) [compound 144]: 100 µM. Take `CCCCOC(=O)c1ccc(N(Cc2cccc(OC(F)(F)F)c2)CC(O)C(F)(F)F)cc1` (centres unmarked) [compound 164]: the IC50 is above 100 µM. The figure for `OC(CN(Cc1ccccc1)c1cccc(Oc2ccccc2)c1)C(F)(F)F` (centres unmarked) [compound 217] is 32 µM; for `OC(CN(Cc1cccc(OC(F)(F)C(F)F)c1)c1cccc(Oc2cccc(C(F)(F)F)c2F)c1)C(F)(F)F` (centres unmarked) [compound 227] it is 0.13 µM. The compound `OC(CN(Cc1cccc(OC(F)(F)C(F)F)c1)c1cccc(Oc2cccc(F)c2)c1)C(F)(F)F` (centres unmarked) [compound 240] yielded an IC50 of 0.27 µM. The figure for `Cc1cc(Oc2cccc(N(Cc3cccc(OC(F)(F)C(F)F)c3)CC(O)C(F)(F)F)c2)ccc1F` (centres unmarked) [compound 242] is 0.076 µM; for `OC(CN(Cc1cccc(OC(F)(F)C(F)F)c1)c1cccc(Oc2ccc(S)cc2)c1)C(F)(F)F` (centres unmarked) [compound 263] it is above 50 µM. The figure for `COC(=O)c1cccc(CN(CC(O)C(F)(F)F)c2cccc(OC(F)(F)F)c2)c1` (centres unmarked) [compound 325] is above 100 µM; for `OC(CN(Cc1ccc(-c2ccccc2)cc1)c1cccc(OC(F)(F)F)c1)C(F)(F)F` (centres unmarked) [compound 333] it is 100 µM. The figure for `COc1ccccc1CC(=O)N(CC(O)C(F)(F)F)c1cccc(OC(F)(F)F)c1` (centres unmarked) [compound 339] is above 100 µM; for `COc1ccc(OC)c(C(=O)CN(CC(O)C(F)(F)F)c2cccc(OC(F)(F)F)c2)c1` (centres unmarked) [compound 340] it is 100 µM.

In turn, `O=C(c1c(F)c(F)c(F)c(F)c1F)N(CC(O)C(F)(F)F)c1cccc(OC(F)(F)F)c1` (centres unmarked) [compound 343] returned an IC50 of 100 µM.

`COc1cc(CN(CC(O)C(F)(F)F)c2cccc(OC(F)(F)F)c2)cc(OC)c1` (centres unmarked) [compound 350]: half-maximal inhibition (IC50) was put at 50 µM. The figure for `O=C(C=Cc1ccccc1)N(CC(O)C(F)(F)F)c1cccc(OC(F)(F)F)c1` (centres unmarked) [compound 351] is 50 µM; for `O=C(Cc1ccccc1Oc1ccccc1)N(CC(O)C(F)(F)F)c1cccc(OC(F)(F)F)c1` (centres unmarked) [compound 361] it is above 100 µM. `OC(CN(Cc1cccc(OC(F)(F)C(F)F)c1)c1cccc(OCc2cccc(SC(F)(F)F)c2)c1)C(F)(F)F` (centres unmarked) [compound 410]: the IC50 was 0.19 µM. Next, `OC(CN(Cc1cccc(OC(F)(F)C(F)F)c1)c1cccc(OCc2cc(F)cc(C(F)(F)F)c2)c1)C(F)(F)F` (centres unmarked) [compound 411]: 0.25 µM; `CC(C)(C)c1ccc(COc2cccc(N(Cc3cccc(OC(F)(F)C(F)F)c3)CC(O)C(F)(F)F)c2)cc1` (centres unmarked) [compound 418]: 2.1 µM. The figure for `OC(CN(Cc1cccc(OC(F)(F)C(F)F)c1)c1cccc(OCc2ccccn2)c1)C(F)(F)F` (centres unmarked) [compound 432] is 1.7 µM; for `OC(CN(Cc1cccc(OC(F)(F)C(F)F)c1)c1cccc(Oc2nccs2)c1)C(F)(F)F` (centres unmarked) [compound 448] it is 4.3 µM. Next, `O=C(c1cccc(N(Cc2cccc(OC(F)(F)C(F)F)c2)CC(O)C(F)(F)F)c1)N1CCOCC1` (centres unmarked) [compound 471]: 50 µM; `OC(CN(Cc1cccc(OC(F)(F)C(F)F)c1)c1cccc(OCCN2CCCC2)c1)C(F)(F)F` (centres unmarked) [compound 498]: above 50 µM; `OCCCOc1cccc(N(Cc2cccc(OC(F)(F)C(F)F)c2)CC(O)C(F)(F)F)c1` (centres unmarked) [compound 504]: 14 µM.

Compound `CC(C)(C)COc1cccc(N(Cc2cccc(OC(F)(F)C(F)F)c2)CC(O)C(F)(F)F)c1` (centres unmarked) [compound 506] registered an IC50 of 0.97 µM. The figure for `OC(CN(Cc1cccc(OC(F)(F)C(F)F)c1)c1cccc(OC2CCCC2)c1)C(F)(F)F` (centres unmarked) [compound 509] is 0.42 µM; for `OC(CN(Cc1cccc(OC(F)(F)C(F)F)c1)c1cccc(Cc2ccccc2)c1)C(F)(F)F` (centres unmarked) [compound 515] it is 1.8 µM. Next, `OC(CN(Cc1cccc(OC(F)(F)C(F)F)c1)c1cccc(-c2ccccc2)c1)C(F)(F)F` (centres unmarked) [compound 564]: 2.5 µM; `Oc1cccc(CN(CC(O)C(F)(F)F)c2cccc(Oc3ccc(F)cc3)c2)c1` (centres unmarked) [compound 635]: 80 µM. Next, `OC(CN(Cc1cccc(SC(F)(F)F)c1)c1cccc(Oc2ccc(F)cc2)c1)C(F)(F)F` (centres unmarked) [compound 636]: 0.39 µM. The compound `OC(CN(Cc1ccc(C(F)(F)F)cc1)c1cccc(Oc2ccc(F)cc2)c1)C(F)(F)F` (centres unmarked) [compound 640] displayed an IC50 of 4.3 µM.

In turn, `OC(CN(Cc1cccc(C(F)(F)F)c1)c1cc(Oc2ccc(F)cc2)cc(C(F)(F)F)c1)C(F)(F)F` (centres unmarked) [compound 641] came in with an IC50 of 11 µM.

As for `OC(CN(Cc1cccc(OC(F)(F)F)c1)c1cc(Oc2ccc(F)cc2)cc(C(F)(F)F)c1)C(F)(F)F` (centres unmarked) [compound 643], the IC50 is 2.1 µM.

In the case of `CCOc1cccc(CN(CC(O)C(F)(F)F)c2cccc(Oc3ccc(F)cc3)c2)c1` (centres unmarked) [compound 646], the IC50 was found to be 0.77 µM. The figure for `CCCOc1cccc(CN(CC(O)C(F)(F)F)c2cccc(Oc3ccc(F)cc3)c2)c1` (centres unmarked) [compound 648] is 0.83 µM.

By IC50 is commonly meant the concentration at which inhibition is half-maximal. Lower therefore signals higher potency.
